Where a SMILES comes first, the peptide text is derived from it. Bridges are numbered along the chain shown (N, C = ends).
Tests used:
Nav1.4 = molecular target: T1, Nav1.4 (Homo sapiens, UniProt P35499); experiment: Whole-cell patch clamp on Nav1.4 overexpressing HEK293 cells; type: cell-based; conditions: 300 nM; −90 mV to +40 mV, 30 ms; n=5
T1 construct: expressed in transfected cells; host or cells: HEK293
Experimental: The effect of the polypeptide PPN-01 provided in Example 1 on voltage gated sodium channels is studied using the glass microelectrodes prepared as described above in Example 2 and employing the whole-cell membrane clamp techniques. The specific operations are as follows:
1. Firstly, internal electrode solution is placed on ice to defrost; after defrosting, an appropriate amount of internal electrode solution is drawn up with a 1 ml syringe; and after a homemade filler is applied to the tip end of the syringe, the air in the tube is emptied to fill the entire filler with internal electrode solution. Secondly, internal electrode solution in the filler is poured into the glass microelectrode from a rear part thereof by using the rear part perfusion method; internal electrode solution is slowly injected into the glass microelectrode; and the amount of perfusion is generally ⅓ to ½ of a length of the glass microelectrode (it is necessary to ensure that the silver wire of the electrode may fully contact internal electrode solution, but also to avoid electrode contamination resulting from too much internal electrode solution). […]

[1] = system: mouse acetate acid writhing model; experiment: Mouse acetate acid writhing model; type: in vivo, C57BL/6 mice
Description: Seventy SPF-grade healthy C57BL/6 mice, half male and half female, weighing 22-25 g and 8-10 weeks old, are randomly selected. Seventy C57BL/6 mice are weighed and numbered in ascending order of body weight (No. S1-S70). The mice are randomly divided into seven groups in terms of the randomized numerical table method, which are the saline group and the experimental groups, among which the experimental groups include the PPN-01 group, the PPN-04 group, the PPN-06 group, the PPN-11 group, the PPN-12 group, and the PPN-16 group. The dosing concentration (i.e., the concentration of added polypeptides PPN-01, PPN-04, PPN-06, PPN-11, PPN-12, and PPN-16) in each group is 10 mg/kg, with 10 mice in each group.
(§1) Saline Group: 10 healthy mice are routinely reared for one week; the saline is intraperitoneally injected once daily at a concentration of 10 ml/kg for 7 consecutive days; 15 min after the last injection is finished, 0.7% glacial acetic acid (10 ml/kg) is intraperitoneally injected; and each mouse is observed for their writhing behaviors.
Experimental Group: 10 healthy mice are routinely reared for one week; 10 ml/kg of different polypeptides are injected intraperitoneally at a concentration of 0.1 mL/10 g once daily for 7 consecutive days; 15 min after the last injection is finished, 0.7% glacial acetic acid (10 ml/kg) is intraperitoneally injected; and each mouse is observed for their behaviors in writhing.
During the above experiments, the time of first writhing (writhing latency) and the number of writhing in each mouse within 15 min are recorded immediately after the injection of glacial acetic acid solution in each group of mice. When behavioral responses such as inward concavity of the abdomen, extension of the torso and hind limbs, and elevation of the buttocks occur, it is considered to be a complete writhing response, and the results are shown in Table 3 and FIG. 6.
Forty SPF-grade healthy C57BL/6 mice, half male and half female, weighing 22-25 g and 8-10 weeks old, are randomly selected. Forty C57BL/6 mice are weighed and numbered in ascending order of body weight (No. 1 to No. 40). The mice are randomly divided into five groups according to the randomized numerical table method, namely, the saline group, the low-concentration group (2.5 mg/kg), the medium-concentration group (10 mg/kg), the high-concentration group (40 mg/kg), and the diclofenac sodium group (30 mg/kg), with eight mice in each group.
as §1, with “Group: 8” for “Group: 10”, “their behaviors in writhing. […]” for “their writhing behaviors.”

[2] = 10 mg/kg i.p. once daily for 7 days, 0.7% glacial acetic acid 15 min after last injection, 10 mice

T1 sequence (P35499 whole entry): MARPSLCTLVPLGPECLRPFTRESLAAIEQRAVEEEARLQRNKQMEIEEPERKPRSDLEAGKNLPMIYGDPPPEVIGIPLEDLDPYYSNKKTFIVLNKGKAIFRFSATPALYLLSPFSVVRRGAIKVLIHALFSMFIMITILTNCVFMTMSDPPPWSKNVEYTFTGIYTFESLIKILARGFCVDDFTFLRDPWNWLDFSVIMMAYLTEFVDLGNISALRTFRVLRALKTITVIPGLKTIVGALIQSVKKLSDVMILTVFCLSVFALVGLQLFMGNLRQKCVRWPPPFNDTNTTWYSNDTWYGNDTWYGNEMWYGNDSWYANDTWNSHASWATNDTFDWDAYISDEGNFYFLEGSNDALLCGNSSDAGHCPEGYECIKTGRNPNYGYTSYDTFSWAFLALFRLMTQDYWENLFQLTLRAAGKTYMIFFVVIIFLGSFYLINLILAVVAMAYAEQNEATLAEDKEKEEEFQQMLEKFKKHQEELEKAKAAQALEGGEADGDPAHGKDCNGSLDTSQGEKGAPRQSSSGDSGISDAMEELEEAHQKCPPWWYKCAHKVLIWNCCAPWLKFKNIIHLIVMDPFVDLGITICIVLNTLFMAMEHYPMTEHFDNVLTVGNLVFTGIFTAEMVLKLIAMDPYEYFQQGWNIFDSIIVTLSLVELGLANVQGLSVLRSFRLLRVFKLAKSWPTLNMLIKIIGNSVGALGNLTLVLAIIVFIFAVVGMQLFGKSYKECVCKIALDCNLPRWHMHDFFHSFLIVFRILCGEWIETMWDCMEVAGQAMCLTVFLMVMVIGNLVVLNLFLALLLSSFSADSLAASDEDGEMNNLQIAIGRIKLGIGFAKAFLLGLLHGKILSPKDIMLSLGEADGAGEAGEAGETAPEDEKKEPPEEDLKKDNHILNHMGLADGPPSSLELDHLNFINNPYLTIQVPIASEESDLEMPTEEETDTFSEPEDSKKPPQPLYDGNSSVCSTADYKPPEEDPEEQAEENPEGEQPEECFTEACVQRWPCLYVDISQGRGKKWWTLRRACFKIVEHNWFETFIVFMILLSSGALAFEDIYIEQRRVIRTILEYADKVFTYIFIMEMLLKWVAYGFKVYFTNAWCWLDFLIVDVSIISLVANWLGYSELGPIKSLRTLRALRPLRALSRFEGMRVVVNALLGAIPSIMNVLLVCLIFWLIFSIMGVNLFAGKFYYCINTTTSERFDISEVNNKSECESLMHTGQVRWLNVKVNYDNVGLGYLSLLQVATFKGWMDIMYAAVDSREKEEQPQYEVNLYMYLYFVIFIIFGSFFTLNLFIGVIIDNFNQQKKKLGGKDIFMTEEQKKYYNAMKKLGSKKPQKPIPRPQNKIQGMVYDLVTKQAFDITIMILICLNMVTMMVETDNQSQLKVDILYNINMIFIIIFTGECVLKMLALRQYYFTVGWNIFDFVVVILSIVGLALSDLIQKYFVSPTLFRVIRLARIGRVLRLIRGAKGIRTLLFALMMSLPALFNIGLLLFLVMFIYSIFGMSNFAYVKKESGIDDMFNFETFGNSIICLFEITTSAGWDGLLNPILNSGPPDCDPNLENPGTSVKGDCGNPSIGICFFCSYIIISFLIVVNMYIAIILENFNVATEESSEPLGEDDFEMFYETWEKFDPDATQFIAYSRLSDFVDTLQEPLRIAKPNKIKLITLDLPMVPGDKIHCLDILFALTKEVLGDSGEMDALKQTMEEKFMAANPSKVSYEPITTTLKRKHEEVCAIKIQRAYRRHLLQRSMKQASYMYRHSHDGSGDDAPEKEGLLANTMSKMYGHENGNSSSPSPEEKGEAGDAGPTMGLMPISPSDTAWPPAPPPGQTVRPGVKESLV

`CSCC[C@@H]1NC(=O)CNC(=O)[C@H](CCC(=O)O)NC(=O)[C@@H]2CSSC[C@H](NC(=O)[C@H](Cc3ccc(O)cc3)NC(C)=O)C(=O)N[C@@H](CCC(N)=O)C(=O)N[C@@H](CCCCN)C(=O)N[C@@H](Cc3ccccc3)C(=O)N[C@@H](CC(C)C)C(=O)N[C@@H](C)C(=O)N3CCC[C@H]3C(=O)N[C@H]3CSSC[C@H](NC(=O)[C@H](CCC(=O)O)NC1=O)C(=O)N[C@@H](CCCCN)C(=O)N[C@@H](CC(C)C)C(=O)N[C@@H](Cc1c[nH]c4ccccc14)C(=O)N[C@H](C(=O)N[C@@H](CCCCN)C(=O)N[C@@H](CCCCN)C(=O)N[C@@H](CCCCN)C(=O)N[C@@H](CC(C)C)C(=O)N[C@@H](Cc1c[nH]c4ccccc14)C(N)=O)CSSC[C@H](NC(=O)[C@H](CCCCN)NC(=O)[C@H](CCCNC(=N)N)NC(=O)[C@H](CCC(=O)O)NC(=O)[C@H](CO)NC(=O)[C@H](CC(=O)O)NC3=O)C(=O)N2` [PPN-01] (Ac-YCQKFLAPCDSERKCCEGMECKLWCKKKLW-NH2; disulfide 2-16, 9-21, 15-25) was tested, and the “inhibition effect on Nav1.4 overexpressing HEK293 cells” value (Nav1.4) was “no significant inhibition effect”, the Number of writhing [1, 2] was 14.4 times/15 min and the “Time of first writhing” value [1, 2] was 4.15 min. For the same compound, the “analgesic effect on the mouse acetate acid writhing model” value ([1]; 10 mg/kg i.p., 7 days, compared with saline group) was “certain analgesic effect”.

— patent publication US20260042802A1, “POLYPEPTIDE AND USE THEREOF” (priority 2024, published 2026)
